Data reported in patent US9260429B2, “Pyrido[3,4-B]indoles and methods of use” (Medivation Technologies, Inc., priority 2008, dated 2016).
Where two headings read alike, the source gives them in different places.

Assays:
[1] = target: T1, human recombinant serotonin (5-Hydroxytryptamine) 5-HT7 receptor (Homo sapiens, UniProt P34969); assay: Serotonin 5-HT7 radioligand binding ([3H]LSD); details: for inhibition at 0.003 µM: compound concentration 3 nM; for inhibition at 0.01 µM: compound concentration 10 nM; for inhibition at 0.03 µM: compound concentration 0.03 μM; for inhibition at 0.1 µM: compound concentration 0.1 μM; for inhibition at 0.3 µM: compound concentration 0.3 μM
T1 construct: expressed in transfected cells; host or cells: CHO cells
T1 sequence (P34969 whole entry): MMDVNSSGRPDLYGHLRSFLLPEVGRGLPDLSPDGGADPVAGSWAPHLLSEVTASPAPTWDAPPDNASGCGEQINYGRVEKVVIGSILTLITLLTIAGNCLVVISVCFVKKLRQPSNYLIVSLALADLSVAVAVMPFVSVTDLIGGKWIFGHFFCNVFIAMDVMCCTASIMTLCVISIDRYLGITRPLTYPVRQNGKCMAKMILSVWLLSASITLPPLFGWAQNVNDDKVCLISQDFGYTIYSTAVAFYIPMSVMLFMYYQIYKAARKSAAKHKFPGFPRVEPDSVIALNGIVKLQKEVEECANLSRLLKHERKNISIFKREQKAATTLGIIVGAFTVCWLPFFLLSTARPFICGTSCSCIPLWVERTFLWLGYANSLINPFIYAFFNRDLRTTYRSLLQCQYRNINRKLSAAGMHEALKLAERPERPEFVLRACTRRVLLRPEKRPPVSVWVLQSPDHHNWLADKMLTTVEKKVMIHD
Experimental: To evaluate in radioligand binding assays the activity of compounds of the invention, human recombinant serotonin (5-Hydroxytryptamine) 5-HT7 receptor expressed in Chinese hamster ovary (CHO) cells (Roth, B. L. et al., J. Pharmacol. Exp. Ther. 268:1403, 1994; Shen, Y. et al., J. Biol. Chem. 268:18200, 1993) in a modified Tris-HCl buffer (50 mM Tris-HCl, pH 7.4, 10 mM MgCl2, 0.5 mM EDTA) was used. Compounds of invention were incubated with 5.5 nM [^3H]Lysergic acid diethylamide (LSD) for 2 hours at 25° C. Non-specific binding was estimated in the presence of […] Serotonin (5-HT). Receptor proteins were filtered and washed, the filters were then counted to determine [^3H]LSD specifically bound. Compounds were screened at 1 μM or lower, using 1% DMSO as vehicle. Biochemical assay results are presented as the percent inhibition of specific binding in Table 5.

[2] = system: rat central imidazoline I2 receptor; assay: Central imidazoline I2 radioligand binding ([3H]Idazoxan); details: inhibition of specific [3H]Idazoxan binding
Experimental: To evaluate in radioligand binding assays the activity of compounds of the invention, rat central imidazoline I2 receptor obtained from Wistar Rat cerebral cortex (Brown, C. M. et al., Br. J. Pharmacol. 99:803, 1990) in a modified Tris-HCl buffer (50 mM Tris-HCl buffer, pH 7.4, 0.5 mM EDTA) was used. Compounds of the invention were incubated with 2 nM [^3H]Idazoxan for 30 minutes at 25° C. Non-specific binding was estimated in the presence of 1 μM Idazoxan. Receptor proteins were filtered and washed, the filters were then counted to determine [^3H]Idazoxan specifically bound. Compounds were screened at 1 μM or lower, using 1% DMSO as vehicle. Compounds of the invention were tested in this biochemical assay and percent inhibition of specific binding was determined.

[3] = 2 h, read-out: Percent Inhibition of ligand binding Serotonin (1 μM ligand concentration) 5-HT7
[4] = read-out: Percentage inhibition of ligand binding to 5-HT7 receptor

Structure (SMILES)	inhibition at 1 µM [1, 3]	further results
CC1c2c(c3cc(Cl)ccc3n2C#Cc2ccc(F)cc2)CCN1C (stereo not shown) [Compound 128]	24%	–
C/C(=C/n1c2c(c3cc(C)ccc31)CCN(C)C2C)c1ccccc1F (stereo not shown) [Compound 165]	91%	–
C/C(=C/n1c2c(c3cc(Cl)ccc31)CCN(C)C2C)c1ccccc1F (stereo not shown) [Compound 167]	97%	–
C/C(=C\n1c2c(c3cc(Cl)ccc31)CCN(C)C2C)c1ccc(Cl)cc1 (stereo not shown) [Compound 99, 6-chloro-9-(2-(4-chlorophenyl)prop-1-enyl)-1,2-dimethyl-2,3,4,9-tetrahydro-1H-pyrido[3,4-b]indole]	68%	–
CCC1c2c(c3cc(Cl)ccc3n2/C=C(\C)c2ccc(Cl)cc2)CCN1C (stereo not shown) [Compound 100, 6-chloro-9-(2-(4-chlorophenyl)prop-1-enyl)-1-ethyl-2-methyl-2,3,4,9-tetrahydro-1H-pyrido[3,4-b]indole]	42%	–
CC1c2c(c3cc(Cl)ccc3n2C#Cc2ccc(Cl)cc2)CCN1C (stereo not shown) [Compound 132, 6-chloro-9-((4-chlorophenyl)ethynyl)-1,2-dimethyl-2,3,4,9-tetrahydro-1H-pyrido[3,4-b]indole]	35%	–
CCC1c2c(c3cc(Cl)ccc3n2C#Cc2ccc(F)cc2)CCN1C (stereo not shown) [Compound 129]	15%	–
CCC1c2c(c3cc(Cl)ccc3n2CCc2ccc(F)cc2)CCN1C (stereo not shown) [Compound 78]	99%	–
CCC1c2c(c3cc(C)ccc3n2C(=O)Cc2ccc(F)cc2)CCN1C (stereo not shown) [Compound 159]	49%	–
Cc1ccc2c(c1)c1c(n2CCc2ccc(C)nc2)CN(C)CC1 [Compound 1, 2,3,4,9-tetrahydro-2,6-dimethyl-9-(2-(6-methylpyridin-3-yl)ethyl)-1H-pyrido[3,4-b]indole]	–	Binding data (Percentage Inhibition) Imidazoline I2 Central (1 μM) [2]: 40%
C/C(=C\n1c2c(c3cc(C)ccc31)CCN(C)C2)c1ccc(F)cc1 [Compound 91, (E)-9-(2-(4-fluorophenyl)prop-1-enyl)-2,6-dimethyl-2,3,4,9-tetrahydro-1H-pyrido[3,4-b]indole]	–	inhibition at 0.003 µM [1, 4]: 19%; inhibition at 0.01 µM [1, 4]: 36%; inhibition at 0.03 µM [1, 4]: 53%; inhibition at 0.1 µM [1, 4]: 83%; inhibition at 0.3 µM [1, 4]: 87%
C/C(=C\n1c2c(c3cc(C)ccc31)CCN(C)C2C)c1ccc(Cl)cc1 (stereo not shown) [Compound 161, 9-(2-(4-chlorophenyl)prop-1-enyl)-1,2,6-trimethyl-2,3,4,9-tetrahydro-1H-pyrido[3,4-b]indole]	93%	–
CN1CCc2c(n(CCc3ccc(F)cc3)c3ccc(Cl)cc23)C1 [Compound 3, 9-(4-fluorophenethyl)-6-chloro-2,3,4,9-tetrahydro-2-methyl-1H-pyrido[3,4-b]indole]	–	Binding data (Percentage Inhibition) Imidazoline I2 Central (1 μM) [2]: 20%
C/C(=C\n1c2c(c3cc(C)ccc31)CCN(C)C2)c1ccc(Cl)cc1 [Compound 97, 9-(2-(4-chlorophenyl)prop-1-enyl)-2,6-dimethyl-2,3,4,9-tetrahydro-1H-pyrido[3,4-b]indole]	98%	–
C/C(=C\n1c2c(c3cc(Cl)ccc31)CCN(C)C2C)c1ccccc1F (stereo not shown) [Compound 168]	84%	–
Cc1ccc(CCn2c3c(c4cc(Cl)ccc42)CCN(C)C3C)cn1 (stereo not shown) [Compound 80]	82%	–
CC1c2c(c3cc(Cl)ccc3n2CCc2ccc(F)cc2)CCN1C (stereo not shown) [Compound 81]	82%	–
CCC1c2c(c3cc(Cl)ccc3n2CC(C)(O)c2ccc(F)cc2)CCN1C (stereo not shown) [Compound 79]	85%	–
C/C(=C\n1c2c(c3cc(Cl)ccc31)CCN(C)C2)c1ccc(Cl)cc1 [Compound 98, 6-chloro-9-(2-(4-chlorophenyl)prop-1-enyl)-2-methyl-2,3,4,9-tetrahydro-1H-pyrido[3,4-b]indole]	94%	–
C/C(=C\n1c2c(c3cc(C)ccc31)CCN(C)C2C)c1ccccc1F (stereo not shown) [Compound 166]	92%	inhibition at 1 µM ([1]; compound concentration 1 μM, read-out: Percentage inhibition of ligand binding to 5-HT7 receptor): 92%
Cc1ccc2c(c1)c1c(n2C(=O)Cc2ccc(Cl)cc2)C(c2ccccc2)N(C)CC1 (stereo not shown) [Compound 163]	29%	–
Cc1ccc2c(c1)c1c(n2CCC2CCCCC2)CN(C)CC1 [Compound 2, 9-(2-cyclohexylethyl)-2,3,4,9-tetrahydro-2,6-dimethyl-1H-pyrido[3,4-b]indole]	–	Binding data (Percentage Inhibition) Imidazoline I2 Central (1 μM) [2]: 18%
C#CCn1c2c(c3cc(Cl)ccc31)CCN(C)C2 [Compound 125, 6-chloro-2,3,4,9-tetrahydro-2-methyl-9-(prop-2-yn1)-1H-pyrido[3,4-b]indole]	–	Binding data (Percentage Inhibition) Imidazoline I2 Central (1 μM) [2]: 60%
CCC1c2c(c3cc(C)ccc3n2C#Cc2ccc(Cl)cc2)CCN1C (stereo not shown) [Compound 162, 9-((4-chlorophenyl)ethynyl)-1-ethyl-2,6-dimethyl-2,3,4,9-tetrahydro-1H-pyrido[3,4-b]indole]	27%	–
CCC1c2c(c3cc(C)ccc3n2/C=C(\C)c2ccc(Cl)cc2)CCN1C (stereo not shown) [Compound 160, 9-(2-(4-chlorophenyl)prop-1-enyl)-1-ethyl-2,6-dimethyl-2,3,4,9-tetrahydro-1H-pyrido[3,4-b]indole]	84%	–
C/C(=C\n1c2c(c3cc(Cl)ccc31)CCN(C)C2)c1ccc(F)cc1 [Compound 90, (E)-6-chloro-9-(2-(4-fluorophenyl)prop-1-enyl)-2-methyl-2,3,4,9-tetrahydro-1H-pyrido[3,4-b]indole]	–	inhibition at 0.003 µM [1, 4]: -2%; inhibition at 0.01 µM [1, 4]: 15%; inhibition at 0.03 µM [1, 4]: 29%; inhibition at 0.1 µM [1, 4]: 63%; inhibition at 0.3 µM [1, 4]: 86%
C/C(=C\n1c2c(c3cc(C)ccc31)CCN(C)C2c1ccccc1)c1ccc(Cl)cc1 (stereo not shown) [Compound 164, 9-(2-(4-chlorophenyl)prop-1-enyl)-2,6-dimethyl-1-phenyl-2,3,4,9-tetrahydro-1H-pyrido[3,4-b]indole]	8%	–
CC1CCN(C(=O)Cn2c3c(c4cc(Cl)ccc42)CCN(C)C3)CC1 [Compound 38, 2-(6-chloro-1,2,3,4-tetrahydro-2-methylpyrido[3,4-b]indol-9-yl)-1-(4-methylpiperidin-1-vyl)ethanone]	–	Binding data (Percentage Inhibition) Imidazoline I2 Central (1 μM) [2]: 33%
